Experimental data from patent US11426397B2, “Piperidinyl- and piperazinyl-substituted heteroaromatic carboxamides as modulators of GPR6” (TAKEDA PHARMACEUTICAL COMPANY LIMITED, priority 2017, dated 2022).

Target: T1, GPR6 receptor expressed in CHO-K1 cells (Homo sapiens, UniProt P46095)
T1 construct: expressed in transfected cells
Experiment: In vitro inhibition of cAMP (EC50), cell-based HTRF cAMP assay
Details: inhibition of constitutive cAMP activity of GPR6 in CHO-K1 cells
How it was run: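 Cellular cAMP measured by Lance Ultra HTRF (Eu-cAMP tracer, ULight anti-cAMP), with EC50 fitted by four-parameter logistic. Test compounds sat on cells 45 min, 37 °C, in pH 7.4 Ringer's with 300 μM IBMX and 0.5% BSA; GPR6 in CHO-K1 induced beforehand by doxycycline, 2 μg/mL, 20 h.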

T1 sequence (P46095 whole entry): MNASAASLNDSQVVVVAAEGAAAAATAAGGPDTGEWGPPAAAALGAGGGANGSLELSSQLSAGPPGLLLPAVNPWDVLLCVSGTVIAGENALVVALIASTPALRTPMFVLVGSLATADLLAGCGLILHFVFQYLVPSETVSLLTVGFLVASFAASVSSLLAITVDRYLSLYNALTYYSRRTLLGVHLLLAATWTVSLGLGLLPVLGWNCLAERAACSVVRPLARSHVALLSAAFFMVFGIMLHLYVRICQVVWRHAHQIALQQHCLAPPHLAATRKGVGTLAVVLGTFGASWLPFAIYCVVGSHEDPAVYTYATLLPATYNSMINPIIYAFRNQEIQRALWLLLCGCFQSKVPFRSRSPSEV

Row | SMILES | pEC50, in vitro inhibition of cAMP
1 | Cc1ccc(C(=O)Nc2cc(C#N)ccc2N2CCC(Oc3ccc(F)cc3F)CC2)nc1 [Example 124, N-(5-cyano-2-(4-(2,4-difluorophenoxy)piperidin-1-yl)phenyl)-5-methylpicolinamide] | 6.9
2 | COc1ncc(F)cc1C(=O)Nc1ccc(C)nc1N1CCN(Cc2ccc(F)cc2)CC1 [Example 100, 5-fluoro-N-(2-(4-(4-fluorobenzyl)piperazin-1-yl)-6-methylpyridin-3-yl)-2-methoxynicotinamide] | 6.8
3 | COc1ncccc1C(=O)Nc1cc(C#N)ccc1N1CCN(C(=O)c2ccc(Cl)cc2)CC1 [Example 285, N-(2-(4-(4-chlorobenzoyl)piperazin-1-yl)-5-cyanophenyl)-2-methoxynicotinamide] | 6.9
4 | COc1cc(F)cc(CN2CCN(c3ncc(C#N)cc3NC(=O)c3cn(C)nc3OC)CC2)c1 [Example 159, N-(5-cyano-2-(4-(3-fluoro-5-methoxybenzyl)piperazin-1-yl)pyridin-3-yl)-3-methoxy-1-methyl-1H-pyrazole-4-carboxamide] | 6.0
5 | Cc1cc(C(=O)Nc2cc(C#N)ccc2N2CCC(Oc3ccc(F)cc3F)CC2)no1 [Example 41, N-(5-cyano-2-(4-(2,4-difluorophenoxy)piperidin-1-yl)phenyl)-5-methylisoxazole-3-carboxamide] | 6.4
6 | COc1nc(C)ncc1C(=O)Nc1cc(C#N)ccc1N1CCC(Oc2ccc(F)cc2F)CC1 [Example 278] | 7.4
7 | COc1ncc(F)cc1C(=O)Nc1cc(C#N)ccc1N1CCC(Oc2ccc(F)cc2F)CC1 [Example 224, N-(5-cyano-2-(4-(2,4-difluorophenoxy)piperidin-1-yl)phenyl)-5-fluoro-2-methoxynicotinamide] | 7.3
8 | COc1cccc(S(=O)(=O)C2CCN(c3ccc(C#N)cc3NC(=O)c3cn(C)nc3OC)CC2)c1 [Example 98, N-(5-cyano-2-(4-((3-methoxyphenyl)sulfonyl)piperidin-1-yl)phenyl)-3-methoxy-1-methyl-1H-pyrazole-4-carboxamide] | 6.4
9 | COc1cncc(C(=O)Nc2cc(C#N)ccc2N2CCC(Oc3ccc(F)cc3F)CC2)n1 [Example 129, N-(5-cyano-2-(4-(2,4-difluorophenoxy)piperidin-1-yl)phenyl)-6-methoxypyrazine-2-carboxamide] | 7.2
10 | Cn1cccc(C(=O)Nc2cc(C#N)ccc2N2CCC([C@@H](F)c3ccc(F)cc3F)CC2)c1=O [Example 85, (R)—N-(5-cyano-2-(4-((2,4-difluorophenyl)fluoromethyl)piperidin-1-yl)phenyl)-1-methyl-2-oxo-1,2-dihydropyridine-3-carboxamide] | 7.2
11 | COc1ncccc1C(=O)Nc1cc(C#N)ccc1N1CCN(Cc2cccc(C#N)c2)CC1 [Example 248, N-(5-cyano-2-(4-(3-cyanobenzyl)piperazin-1-yl)phenyl)-2-methoxynicotinamide] | 6.9
12 | COc1ncccc1C(=O)Nc1cc(C#N)cnc1N1CCN(Cc2ccc(F)cc2)CC1 [Example 75, N-(5-cyano-2-(4-(4-fluorobenzyl)piperazin-1-yl)pyridin-3-yl)-2-methoxynicotinamide] | 7.3
13 | COc1ccc(CN2CCN(c3ncc(C#N)cc3NC(=O)c3cn(C)nc3OC)CC2)cc1 [Example 157, N-(5-cyano-2-(4-(4-methoxybenzyl)piperazin-1-yl)pyridin-3-yl)-3-methoxy-1-methyl-1H-pyrazole-4-carboxamide] | 6.7
14 | Cc1nc(C(=O)Nc2cc(C#N)ccc2N2CCC(Oc3ccc(F)cc3F)CC2)c(C)o1 [Example 110, N-(5-cyano-2-(4-(2,4-difluorophenoxy)piperidin-1-yl)phenyl)-2,5-dimethyloxazole-4-carboxamide] | 6.3
